In patent US20100120716 one finds ring closure, yield of all isomers data, which are given here for one compound.

The conditions of the series: from C=CCCCCCC[C@@H](NC(=O)C1CC(OC(=O)N2Cc3ccccc3C2)CN1C(=O)N(C)CC=C)B1O[C@@H]2C[C@@H]3C[C@@H](C3(C)C)[C@]2(C)O1; rcm bond; Grubbs 2nd generation catalyst; toluene; 6.5 mM; 65.0 °C.

As to `CN1CC=CCCCCCC[C@H](B2O[C@@H]3C[C@@H]4C[C@@H](C4(C)C)[C@]3(C)O2)NC(=O)C2CC(OC(=O)N3Cc4ccccc4C3)CN2C1=O` (stereo partly shown), the ring closure, yield of all isomers came to 40%.
